Where “and” joins values, the source holds several entries; their conditions need not be identical. Equal entries are not always repeated.

Data set [1] deals with snoring. The data set can be described thus: Oral spray of methylsulfonylmethane solution onto the oropharynx before sleep; snoring observed by subject's mate. The class given is in vivo, human. Set-up: key to Results (relief of snoring): FR = Full Relief; MR = Moderate Relief; NR = No Relief. The note with it: for Results (relief of snoring): one line per subject. The protocol: The initial experiments to determine effectiveness of the instillation of methylsulfonylmethane as a snoring reduction agent was carried out with an initial sampling of 10 individuals.
In each of the above cases, the subject was instructed to spray the solution containing the methylsulfonylmethane four (4) times into the oropharynx approximately fifteen (15) minutes to thirty (30) minutes prior to retiring for sleep. Each spray contained about 0.2 ml; to 0.25 ml of the solution. Thus, the total amount instilled is about 0.8 ml to […]. The observation of the presence or absence of snoring was made by the subject's mate. The observing party was not told that the subject was employing […] methylsulfonylmethane. As noted in Table I, 70% of the subject's mates reported the lessening or absence of snoring while 30% reported no benefit from the oral administration of the methylsulfonylmethane.
The seven patients who reported full relief or moderate relief where thereafter provided with a saline spray as a placebo without their knowledge. In each case the snoring returned. They were again given the methylsulfonylmethane spray and 70% again achieve full relief.
A second sampling of subjects was undertaken wherein the weight percentage of methylsulfonylmethane in water was varied at 1%, 5% and 10%.
By warming the solution of water and methylsulfonylmethane to no more than about 37° C. (98.6° F.), a greater concentration of methylsulfonylmethane will go into solution.

For data set [2], the system named is snoring. The note with it: cited from earlier work.
The mark [3] stands for this setting: 15% MSM, oral spray, 10 individuals (Table I).

In the case of `CS(C)(=O)=O` [MSM, methylsulfonylmethane], the “Results (relief of snoring)” value in data set [1] (1% MSM by weight in water, oral) is “FR and NR (3×)”; in data set [1] (5% MSM by weight in water, oral), “NR (2×) and FR (2×)”; in data set [1] (10% MSM by weight in water, oral), “FR (3×) and NR”; in data set [1] (15% MSM by weight, oral spray 4 times (0.8-1.2 ml) 15-30 min before sleep), “FR (6×) and NR (3×) and MR”; in data set [1] (20% MSM by weight in water, solution warmed to no more than about 37° C., oral), “FR”. The “relief of snoring at lowest concentration” value in data set [1] (1% by weight in water, oral, Table II) is “the relief was not reported to be as dramatic as at higher concentrations”. Moreover, the “effectiveness of concentration range against snoring” value in data set [1] (1%-20% by weight in water, oral, Tables I-III) is listed as “effective”. Besides, in data set [1] (setting [3]), the “subject's mates reporting lessening or absence of snoring” value is reported as 70%. Besides, the “subject's mates reporting no benefit” value in data set [1] (setting [3]) is 30%. In data set [1] (the seven responders, re-given MSM spray after saline placebo (snoring returned on placebo)), the “patients again achieving full relief when given the spray again” value was 70%. The “effectiveness of intranasal treatment” value in data set [2] (1% to 20% by weight, drops into the nasal cavity) is on record as “highly effective”. Also, the “time interval of reduced snoring” value in data set [2] (nasal administration saturating mucous membranes of the nasal passageways) is 8 to 12 h. In addition, the “local tolerability on nasal instillation” value in data set [2] (nasal route, some individuals) is “slight burning sensation”.

(Values after patent US6440391B1, “Management of snoring by oral administration of dimethyl sulfone” (Elstan Corporation, priority 2000, dated 2002).)
